Laboratory results as given in the kinase profiling compilation of Christmann-Franck et al. (2016).
Blank lines part the entries; values can stand above or below the compound they belong to.

Legend:
Assay in all cases: radiometric filter-binding kinase assay
[1] = target: RPS6KA3 KD1 KD2 (human) (UniProt P51812)
[2] = target: MKNK2 (human) (UniProt Q9HBH9)
[3] = target: PAK7 (human) (UniProt Q9P286)
[4] = target: PLK1 (human) (UniProt P53350)
[5] = target: FGFR1 (human) (UniProt P11362)
[6] = target: STK11 CAB39 STRADA (human) (UniProt Q9Y376+Q7RTN6+Q15831)
[7] = target: BRSK2 (human) (UniProt Q8IWQ3)
[8] = target: MAPK1 (human) (UniProt P28482)
[9] = target: MAP2K2 (human) (UniProt P36507)
[10] = target: EPHA4 (human) (UniProt P54764)
[11] = target: TBK1 (human) (UniProt Q9UHD2)
[12] = target: CSK (human) (UniProt P41240)
[13] = target: EEF2K (human) (UniProt O00418)
[14] = target: IKBKB (human) (UniProt O14920)
[15] = target: SRPK1 (human) (UniProt Q96SB4)
[16] = tested on: PAK2 (human), Q13177 [T402E]
[17] = target: RPS6KA5 KD1 KD2 (human) (UniProt O75582)
[18] = target: CSNK1D (human) (UniProt P48730)
[19] = target: GSK3B (human) (UniProt P49841)
[20] = target: HIPK1 (human) (UniProt Q86Z02)
[21] = target: MAPK9 (human) (UniProt P45984)
[22] = tested on: AKT1 (human), P31749 [S473D]
[23] = target: MAPK3 (human) (UniProt P27361)
[24] = target: MAPKAPK3 (human) (UniProt Q16644)
[25] = target: HIPK3 (human) (UniProt Q9H422)
[26] = target: MAP3K1 (human) (UniProt Q13233)
[27] = target: MAP3K5 (human) (UniProt Q99683)
[28] = target: ERBB4 (human) (UniProt Q15303)
[29] = target: AURKA (human) (UniProt O14965)
[30] = target: MAPK8 (human) (UniProt P45983)
[31] = target: BRSK1 (human) (UniProt Q8TDC3)
[32] = target: MAP2K6 (human) (UniProt P52564)
[33] = target: MAPK15 (human) (UniProt Q8TD08)
[34] = target: NEK6 (human) (UniProt Q9HC98)
[35] = target: BTK (human) (UniProt Q06187)

ERBB4 (human), sequence (Q15303 whole entry, looked up): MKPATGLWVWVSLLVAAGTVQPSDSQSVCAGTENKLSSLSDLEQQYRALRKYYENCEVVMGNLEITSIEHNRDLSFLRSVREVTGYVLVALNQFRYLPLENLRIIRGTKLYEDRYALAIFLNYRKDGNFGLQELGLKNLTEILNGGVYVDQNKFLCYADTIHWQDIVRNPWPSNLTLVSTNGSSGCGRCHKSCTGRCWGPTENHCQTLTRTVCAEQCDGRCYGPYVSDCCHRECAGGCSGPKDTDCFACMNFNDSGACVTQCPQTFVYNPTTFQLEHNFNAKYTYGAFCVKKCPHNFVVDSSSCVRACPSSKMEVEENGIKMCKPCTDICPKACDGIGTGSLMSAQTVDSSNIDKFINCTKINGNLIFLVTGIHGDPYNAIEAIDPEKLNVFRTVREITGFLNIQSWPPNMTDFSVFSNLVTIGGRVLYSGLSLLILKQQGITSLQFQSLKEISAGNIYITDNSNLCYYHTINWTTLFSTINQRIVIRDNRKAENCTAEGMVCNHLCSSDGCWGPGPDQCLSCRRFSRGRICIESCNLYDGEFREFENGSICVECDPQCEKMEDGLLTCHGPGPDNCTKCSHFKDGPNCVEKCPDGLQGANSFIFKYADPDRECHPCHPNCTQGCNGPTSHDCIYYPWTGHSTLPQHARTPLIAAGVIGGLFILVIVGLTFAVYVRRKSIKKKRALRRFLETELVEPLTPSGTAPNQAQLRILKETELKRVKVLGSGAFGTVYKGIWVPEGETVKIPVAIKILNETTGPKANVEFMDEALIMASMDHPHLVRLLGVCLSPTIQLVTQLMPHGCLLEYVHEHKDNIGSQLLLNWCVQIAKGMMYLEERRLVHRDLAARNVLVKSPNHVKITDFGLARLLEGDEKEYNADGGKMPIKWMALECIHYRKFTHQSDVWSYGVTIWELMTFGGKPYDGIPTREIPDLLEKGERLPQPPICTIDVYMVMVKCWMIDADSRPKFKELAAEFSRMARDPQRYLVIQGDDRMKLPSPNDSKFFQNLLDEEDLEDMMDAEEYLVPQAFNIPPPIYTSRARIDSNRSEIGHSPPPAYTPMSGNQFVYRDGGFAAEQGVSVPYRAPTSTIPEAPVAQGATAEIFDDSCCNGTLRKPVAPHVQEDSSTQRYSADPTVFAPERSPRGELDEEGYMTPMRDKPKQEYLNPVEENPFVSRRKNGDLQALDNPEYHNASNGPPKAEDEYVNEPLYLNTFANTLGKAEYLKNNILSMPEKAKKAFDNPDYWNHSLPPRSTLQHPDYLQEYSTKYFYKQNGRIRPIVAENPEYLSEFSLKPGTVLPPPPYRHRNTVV
MAP3K5 (human), sequence (Q99683 whole entry, looked up): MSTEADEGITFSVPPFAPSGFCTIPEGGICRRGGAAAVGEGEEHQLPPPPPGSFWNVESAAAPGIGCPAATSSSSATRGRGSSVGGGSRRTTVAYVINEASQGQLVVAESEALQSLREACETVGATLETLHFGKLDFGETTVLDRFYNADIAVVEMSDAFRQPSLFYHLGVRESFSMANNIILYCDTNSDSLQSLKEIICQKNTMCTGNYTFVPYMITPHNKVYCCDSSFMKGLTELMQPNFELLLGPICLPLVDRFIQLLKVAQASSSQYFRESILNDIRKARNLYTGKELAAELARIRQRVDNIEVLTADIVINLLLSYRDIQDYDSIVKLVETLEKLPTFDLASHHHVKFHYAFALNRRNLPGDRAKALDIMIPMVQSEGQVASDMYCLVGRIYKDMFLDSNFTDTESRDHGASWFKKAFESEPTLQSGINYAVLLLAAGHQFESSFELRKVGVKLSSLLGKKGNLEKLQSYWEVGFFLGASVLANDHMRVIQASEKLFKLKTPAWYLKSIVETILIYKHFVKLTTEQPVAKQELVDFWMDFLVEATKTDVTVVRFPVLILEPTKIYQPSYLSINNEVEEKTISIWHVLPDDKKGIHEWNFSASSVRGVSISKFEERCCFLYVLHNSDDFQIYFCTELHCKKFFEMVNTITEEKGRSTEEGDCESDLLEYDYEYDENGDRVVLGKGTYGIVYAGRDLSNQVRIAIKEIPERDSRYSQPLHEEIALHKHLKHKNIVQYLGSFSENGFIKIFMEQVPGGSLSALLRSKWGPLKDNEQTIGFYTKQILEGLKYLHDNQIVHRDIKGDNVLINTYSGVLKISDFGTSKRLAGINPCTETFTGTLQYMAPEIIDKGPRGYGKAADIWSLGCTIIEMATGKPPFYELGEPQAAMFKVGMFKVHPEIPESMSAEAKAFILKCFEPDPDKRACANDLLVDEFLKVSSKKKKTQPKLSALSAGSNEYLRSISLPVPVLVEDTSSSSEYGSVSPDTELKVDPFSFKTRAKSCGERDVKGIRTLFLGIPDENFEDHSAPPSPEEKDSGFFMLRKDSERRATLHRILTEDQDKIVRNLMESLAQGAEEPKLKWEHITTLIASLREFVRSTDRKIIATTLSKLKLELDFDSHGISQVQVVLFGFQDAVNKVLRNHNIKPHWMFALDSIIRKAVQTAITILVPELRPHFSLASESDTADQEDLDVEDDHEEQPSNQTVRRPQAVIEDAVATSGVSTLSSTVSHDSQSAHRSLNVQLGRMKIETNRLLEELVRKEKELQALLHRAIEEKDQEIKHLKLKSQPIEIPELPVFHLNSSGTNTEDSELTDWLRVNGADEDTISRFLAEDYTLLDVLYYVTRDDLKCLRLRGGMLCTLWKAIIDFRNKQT
BRSK2 (human), sequence (Q8IWQ3 whole entry, looked up): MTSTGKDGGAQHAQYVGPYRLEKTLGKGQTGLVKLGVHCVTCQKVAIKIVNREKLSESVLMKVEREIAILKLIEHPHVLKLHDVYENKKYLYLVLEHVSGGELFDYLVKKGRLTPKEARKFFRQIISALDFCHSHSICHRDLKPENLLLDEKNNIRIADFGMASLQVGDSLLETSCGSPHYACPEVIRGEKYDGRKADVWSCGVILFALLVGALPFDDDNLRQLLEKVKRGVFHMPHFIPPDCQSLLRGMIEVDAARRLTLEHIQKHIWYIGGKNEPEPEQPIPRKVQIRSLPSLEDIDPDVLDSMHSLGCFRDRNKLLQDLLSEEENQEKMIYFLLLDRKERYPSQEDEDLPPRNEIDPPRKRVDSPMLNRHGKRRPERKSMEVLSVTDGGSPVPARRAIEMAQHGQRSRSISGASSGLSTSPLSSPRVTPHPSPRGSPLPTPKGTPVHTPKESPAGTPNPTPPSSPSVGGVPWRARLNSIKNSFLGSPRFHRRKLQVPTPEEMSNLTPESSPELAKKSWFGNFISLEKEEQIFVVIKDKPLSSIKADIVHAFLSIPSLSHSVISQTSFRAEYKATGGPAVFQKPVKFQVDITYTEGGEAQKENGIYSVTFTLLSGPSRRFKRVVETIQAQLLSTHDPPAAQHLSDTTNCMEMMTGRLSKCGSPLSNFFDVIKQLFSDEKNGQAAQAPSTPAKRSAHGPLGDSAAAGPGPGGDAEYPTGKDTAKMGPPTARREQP
TBK1 (human), sequence (Q9UHD2 whole entry, looked up): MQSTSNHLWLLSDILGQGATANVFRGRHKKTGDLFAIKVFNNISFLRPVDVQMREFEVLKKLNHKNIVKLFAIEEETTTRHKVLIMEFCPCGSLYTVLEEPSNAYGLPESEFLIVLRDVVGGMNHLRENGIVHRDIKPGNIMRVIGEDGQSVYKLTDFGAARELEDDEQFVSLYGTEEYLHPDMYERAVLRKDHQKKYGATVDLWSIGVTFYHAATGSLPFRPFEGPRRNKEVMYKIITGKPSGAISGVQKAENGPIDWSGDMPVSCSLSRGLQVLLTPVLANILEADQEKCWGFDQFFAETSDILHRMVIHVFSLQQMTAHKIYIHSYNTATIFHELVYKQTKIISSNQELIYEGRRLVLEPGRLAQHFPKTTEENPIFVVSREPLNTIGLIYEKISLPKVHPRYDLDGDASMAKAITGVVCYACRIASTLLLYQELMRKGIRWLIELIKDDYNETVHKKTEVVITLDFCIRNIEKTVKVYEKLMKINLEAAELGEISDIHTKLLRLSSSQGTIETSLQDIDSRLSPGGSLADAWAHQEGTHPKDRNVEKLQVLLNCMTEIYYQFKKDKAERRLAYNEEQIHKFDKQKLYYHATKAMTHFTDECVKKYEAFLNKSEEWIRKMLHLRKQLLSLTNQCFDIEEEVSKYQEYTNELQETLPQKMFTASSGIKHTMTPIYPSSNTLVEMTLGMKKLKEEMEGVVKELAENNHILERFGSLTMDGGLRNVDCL
NEK6 (human), sequence (Q9HC98 whole entry, looked up): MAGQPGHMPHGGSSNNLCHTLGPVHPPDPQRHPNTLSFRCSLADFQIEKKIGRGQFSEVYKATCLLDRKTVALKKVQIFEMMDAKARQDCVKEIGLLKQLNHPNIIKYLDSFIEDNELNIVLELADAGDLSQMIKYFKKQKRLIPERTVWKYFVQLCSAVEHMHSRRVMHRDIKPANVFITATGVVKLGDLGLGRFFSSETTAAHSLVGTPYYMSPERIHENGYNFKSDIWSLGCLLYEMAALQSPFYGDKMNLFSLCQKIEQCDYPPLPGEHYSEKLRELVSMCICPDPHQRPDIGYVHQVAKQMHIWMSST
MAP2K2 (human), sequence (P36507 whole entry, looked up): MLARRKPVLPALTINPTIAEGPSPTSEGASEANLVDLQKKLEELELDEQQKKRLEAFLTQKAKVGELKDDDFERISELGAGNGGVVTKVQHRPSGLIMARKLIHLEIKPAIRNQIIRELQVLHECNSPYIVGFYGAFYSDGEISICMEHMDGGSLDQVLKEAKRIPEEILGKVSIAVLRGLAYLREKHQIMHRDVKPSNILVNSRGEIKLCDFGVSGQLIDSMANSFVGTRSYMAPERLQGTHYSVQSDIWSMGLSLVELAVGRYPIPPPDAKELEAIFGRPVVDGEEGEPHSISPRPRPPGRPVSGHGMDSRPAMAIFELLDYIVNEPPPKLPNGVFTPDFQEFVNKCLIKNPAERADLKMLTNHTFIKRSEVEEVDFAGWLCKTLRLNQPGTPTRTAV

- residual activity ([1]; compound 0.1 µM): 38%
- residual activity ([1]; compound 1.0 µM): 9%
- residual activity ([2]; compound 0.1 µM): 67%
- residual activity ([2]; compound 1.0 µM): 17%
- residual activity ([3]; compound 0.1 µM): 53%
- residual activity ([3]; compound 1.0 µM): 18%
- residual activity ([4]; compound 0.1 µM): 90%
- residual activity ([4]; compound 1.0 µM): 91%
- residual activity ([5]; compound 0.1 µM): 20%
- residual activity ([5]; compound 1.0 µM): 8%
- residual activity ([6]; compound 0.1 µM): 119%
- residual activity ([6]; compound 1.0 µM): 73%
- residual activity ([7]; compound 0.1 µM): 84%
- residual activity ([7]; compound 1.0 µM): 35%
- residual activity ([8]; compound 0.1 µM): 84%
- residual activity ([8]; compound 1.0 µM): 57%
- residual activity ([9]; compound 0.1 µM): 55%
- residual activity ([9]; compound 1.0 µM): 28%
- residual activity ([10]; compound 0.1 µM): 14%
- residual activity ([10]; compound 1.0 µM): 5%
- residual activity ([11]; compound 0.1 µM): 14%
- residual activity ([11]; compound 1.0 µM): 8%
- residual activity ([12]; compound 0.1 µM): 65%
- residual activity ([12]; compound 1.0 µM): 38%
- residual activity ([13]; compound 0.1 µM): 100%
- residual activity ([13]; compound 1.0 µM): 91%
- residual activity ([14]; compound 0.1 µM): 86%
- residual activity ([14]; compound 1.0 µM): 55%
- residual activity ([15]; compound 0.1 µM): 104%
- residual activity ([15]; compound 1.0 µM): 87%
- residual activity ([16]; compound 0.1 µM): 50%
- residual activity ([16]; compound 1.0 µM): 14%
- residual activity ([17]; compound 0.1 µM): 76%
- residual activity ([17]; compound 1.0 µM): 34%
- residual activity ([18]; compound 0.1 µM): 95%
- residual activity ([18]; compound 1.0 µM): 69%
- residual activity ([19]; compound 0.1 µM): 37%
- residual activity ([19]; compound 1.0 µM): 6%
- residual activity ([20]; compound 0.1 µM): 44%
- residual activity ([20]; compound 1.0 µM): 17%
- residual activity ([21]; compound 1.0 µM): 33%
- residual activity ([22]; compound 0.1 µM): 99%
- residual activity ([22]; compound 1.0 µM): 89%
- residual activity ([23]; compound 0.1 µM): 111%
- residual activity ([23]; compound 1.0 µM): 82%
- residual activity ([24]; compound 0.1 µM): 97%
- residual activity ([24]; compound 1.0 µM): 81%
- residual activity ([25]; compound 0.1 µM): 69%
- residual activity ([25]; compound 1.0 µM): 19%
- residual activity ([26]; compound 0.1 µM): 103%
- residual activity ([26]; compound 1.0 µM): 92%
- residual activity ([27]; compound 0.1 µM): 99%
- residual activity ([27]; compound 1.0 µM): 77%
- residual activity ([28]; compound 0.1 µM): 60%
- residual activity ([28]; compound 1.0 µM): 17%
- residual activity ([29]; compound 0.1 µM): 18%
- residual activity ([29]; compound 1.0 µM): 3%
- residual activity ([30]; compound 0.1 µM): 89%
- residual activity ([30]; compound 1.0 µM): 38%
- residual activity ([31]; compound 0.1 µM): 74%
- residual activity ([31]; compound 1.0 µM): 17%
- residual activity ([32]; compound 0.1 µM): 99%
- residual activity ([32]; compound 1.0 µM): 75%
- residual activity ([34]; compound 0.1 µM): 89%
- residual activity ([34]; compound 1.0 µM): 59%
- residual activity ([35]; compound 0.1 µM): 22%
- residual activity ([35]; compound 1.0 µM): 14%
Compound: COc1ccc(-n2ncc3cnc(Nc4cc(OC)c(OC)c(OCCCN5CCN(C)CC5)c4)nc32)cc1
- residual activity ([33]; compound 0.1 µM): 22%
- residual activity ([33]; compound 1.0 µM): 4%

- residual activity ([1]; compound 1.0 µM): 34%
- residual activity ([1]; compound 10.0 µM): 9%
- residual activity ([2]; compound 1.0 µM): 62%
- residual activity ([2]; compound 10.0 µM): 23%
- residual activity ([3]; compound 1.0 µM): 95%
- residual activity ([3]; compound 10.0 µM): 56%
- residual activity ([4]; compound 1.0 µM): 76%
- residual activity ([4]; compound 10.0 µM): 39%
- residual activity ([5]; compound 1.0 µM): 118%
- residual activity ([5]; compound 10.0 µM): 95%
- residual activity ([6]; compound 1.0 µM): 89%
- residual activity ([6]; compound 10.0 µM): 86%
- residual activity ([7]; compound 1.0 µM): 80%
- residual activity ([7]; compound 10.0 µM): 38%
- residual activity ([8]; compound 1.0 µM): 99%
- residual activity ([8]; compound 10.0 µM): 71%
- residual activity ([9]; compound 1.0 µM): 93%
- residual activity ([9]; compound 10.0 µM): 90%
- residual activity ([10]; compound 1.0 µM): 97%
- residual activity ([10]; compound 10.0 µM): 76%
- residual activity ([11]; compound 1.0 µM): 62%
- residual activity ([11]; compound 10.0 µM): 17%
- residual activity ([12]; compound 1.0 µM): 101%
- residual activity ([12]; compound 10.0 µM): 94%
- residual activity ([13]; compound 1.0 µM): 116%
- residual activity ([13]; compound 10.0 µM): 107%
- residual activity ([14]; compound 1.0 µM): 91%
- residual activity ([14]; compound 10.0 µM): 93%
- residual activity ([15]; compound 1.0 µM): 79%
- residual activity ([15]; compound 10.0 µM): 68%
- residual activity ([16]; compound 1.0 µM): 86%
- residual activity ([16]; compound 10.0 µM): 86%
- residual activity ([17]; compound 1.0 µM): 91%
- residual activity ([17]; compound 10.0 µM): 49%
- residual activity ([18]; compound 1.0 µM): 98%
- residual activity ([18]; compound 10.0 µM): 81%
- residual activity ([19]; compound 1.0 µM): 90%
- residual activity ([19]; compound 10.0 µM): 83%
- residual activity ([20]; compound 1.0 µM): 78%
- residual activity ([20]; compound 10.0 µM): 35%
- residual activity ([21]; compound 1.0 µM): 104%
- residual activity ([21]; compound 10.0 µM): 89%
- residual activity ([22]; compound 1.0 µM): 102%
- residual activity ([22]; compound 10.0 µM): 87%
- residual activity ([23]; compound 1.0 µM): 85%
- residual activity ([23]; compound 10.0 µM): 54%
- residual activity ([24]; compound 1.0 µM): 91%
- residual activity ([24]; compound 10.0 µM): 108%
- residual activity ([25]; compound 1.0 µM): 107%
- residual activity ([25]; compound 10.0 µM): 98%
- residual activity ([26]; compound 1.0 µM): 104%
- residual activity ([26]; compound 10.0 µM): 99%
- residual activity ([27]; compound 1.0 µM): 44%
- residual activity ([27]; compound 10.0 µM): 10%
- residual activity ([28]; compound 1.0 µM): 97%
- residual activity ([28]; compound 10.0 µM): 70%
- residual activity ([29]; compound 1.0 µM): 97%
- residual activity ([29]; compound 10.0 µM): 55%
- residual activity ([30]; compound 1.0 µM): 87%
- residual activity ([30]; compound 10.0 µM): 50%
- residual activity ([31]; compound 1.0 µM): 82%
- residual activity ([31]; compound 10.0 µM): 50%
- residual activity ([32]; compound 1.0 µM): 72%
- residual activity ([32]; compound 10.0 µM): 31%
- residual activity ([34]; compound 1.0 µM): 103%
- residual activity ([34]; compound 10.0 µM): 84%
- residual activity ([35]; compound 1.0 µM): 131%
- residual activity ([35]; compound 10.0 µM): 90%
Compound: CCNc1nc(Nc2cc(F)c(C(=O)N3CCOCC3)cc2OC)ncc1C(F)(F)F
- residual activity ([33]; compound 1.0 µM): 96%
- residual activity ([33]; compound 10.0 µM): 78%
